According to ChEMBL document CHEMBL1146994, “Advances toward new antidepressants beyond SSRIs: 1-aryloxy-3-piperidinylpropan-2-ols with dual 5-HT1A receptor antagonism/SSRI activities. Part 5” (Bioorg Med Chem Lett, 2006):
Activity calls are given as the source filed them. No cut-off for these calls is given here.

Key:
[1] = target: Sodium-dependent serotonin transporter (Rattus norvegicus) (UniProt P31652); test: Receptor occupancy ex vivo by inhibition of [3H]paroxetine binding to 5HT reuptake site in Sprague-Dawley rat frontal cortex tissue at 30 mg/kg, po relative to control; format: functional, organism-based; parameters: dose 30 mg/kg
Chain of Sodium-dependent serotonin transporter (Rattus norvegicus) (P31652 whole entry): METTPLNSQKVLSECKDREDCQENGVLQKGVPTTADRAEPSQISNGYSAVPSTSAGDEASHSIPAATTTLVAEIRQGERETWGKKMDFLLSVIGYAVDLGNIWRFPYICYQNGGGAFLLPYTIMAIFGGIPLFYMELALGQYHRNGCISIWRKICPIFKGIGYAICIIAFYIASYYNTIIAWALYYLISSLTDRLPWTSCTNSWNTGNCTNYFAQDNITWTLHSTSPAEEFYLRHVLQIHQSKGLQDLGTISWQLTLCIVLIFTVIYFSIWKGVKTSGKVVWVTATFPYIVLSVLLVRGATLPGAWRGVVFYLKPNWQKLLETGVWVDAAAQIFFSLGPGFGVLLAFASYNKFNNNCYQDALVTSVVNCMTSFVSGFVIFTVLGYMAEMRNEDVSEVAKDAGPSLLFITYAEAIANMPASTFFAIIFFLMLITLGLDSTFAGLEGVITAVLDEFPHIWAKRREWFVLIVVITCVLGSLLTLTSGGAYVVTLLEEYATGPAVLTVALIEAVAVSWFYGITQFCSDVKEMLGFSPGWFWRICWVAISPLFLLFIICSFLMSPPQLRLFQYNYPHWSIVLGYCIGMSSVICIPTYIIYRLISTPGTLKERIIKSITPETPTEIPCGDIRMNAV

[2] = target: T1, 5-hydroxytryptamine receptor 1A (Rattus norvegicus) (UniProt P19327); test: Receptor occupancy ex vivo by inhibition of [3H]8-OH-DPAT binding to 5HT1A receptor in Sprague-Dawley rat frontal cortex tissue at 30 mg/kg, po relative to control; format: functional, organism-based; parameters: dose 30 mg/kg
T1 sequence (whole entry): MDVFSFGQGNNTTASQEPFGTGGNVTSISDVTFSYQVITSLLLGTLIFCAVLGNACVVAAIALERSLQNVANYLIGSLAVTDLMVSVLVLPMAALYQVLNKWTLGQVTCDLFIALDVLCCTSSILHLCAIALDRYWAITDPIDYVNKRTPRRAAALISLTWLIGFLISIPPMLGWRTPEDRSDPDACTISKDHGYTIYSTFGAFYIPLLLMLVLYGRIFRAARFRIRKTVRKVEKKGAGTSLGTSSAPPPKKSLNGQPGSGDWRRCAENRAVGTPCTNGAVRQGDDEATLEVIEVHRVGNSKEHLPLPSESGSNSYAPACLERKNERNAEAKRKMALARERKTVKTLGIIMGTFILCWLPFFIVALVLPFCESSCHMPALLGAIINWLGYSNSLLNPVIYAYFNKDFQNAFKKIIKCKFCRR

[3] = tested on: Rattus norvegicus; test: Increase in 5HT level in Sprague-Dawley rat hypothalamus by microdialysis at 10 mg/kg, po (basal value set at 100%); format: functional
[4] = tested on: Rattus norvegicus; test: Increase in 5HT level in Sprague-Dawley rat hypothalamus by microdialysis at 30 mg/kg, po (basal value set at 100%); format: functional
[5] = tested on: Rattus norvegicus; test: Ability to block 8-OH-DPAT-induced increase of corticosterone in po dosed rat serum after 1 hr; format: functional
[6] = target: Sodium-dependent serotonin transporter (Homo sapiens, UniProt P31645); test: Displacement of [3H]paroxetine from 5HT reuptake site
Chain of Sodium-dependent serotonin transporter (P31645 whole entry): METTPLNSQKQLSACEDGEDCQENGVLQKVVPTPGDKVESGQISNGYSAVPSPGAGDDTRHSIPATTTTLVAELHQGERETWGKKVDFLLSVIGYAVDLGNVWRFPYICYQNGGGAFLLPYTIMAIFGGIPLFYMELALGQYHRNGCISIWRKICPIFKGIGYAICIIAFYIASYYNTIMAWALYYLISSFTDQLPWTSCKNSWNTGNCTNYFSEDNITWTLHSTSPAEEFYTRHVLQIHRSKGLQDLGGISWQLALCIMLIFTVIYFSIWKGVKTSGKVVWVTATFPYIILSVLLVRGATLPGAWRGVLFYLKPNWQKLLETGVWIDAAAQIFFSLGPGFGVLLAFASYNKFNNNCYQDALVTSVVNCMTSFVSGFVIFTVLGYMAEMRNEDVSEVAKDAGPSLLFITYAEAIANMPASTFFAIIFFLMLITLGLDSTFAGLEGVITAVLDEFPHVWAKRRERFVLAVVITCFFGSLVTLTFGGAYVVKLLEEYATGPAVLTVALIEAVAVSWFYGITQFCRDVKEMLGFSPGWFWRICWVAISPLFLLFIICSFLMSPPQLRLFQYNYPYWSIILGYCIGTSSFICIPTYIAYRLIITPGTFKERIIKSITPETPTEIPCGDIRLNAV

[7] = tested on: Rattus norvegicus; test: Ability to block PCA-induced depletion of 5HT concentration in po dosed rat brain after 2 hrs; format: functional
[8] = tested on: Rattus norvegicus; test: Ability to block PCA-induced depletion of 5HT concentration in sc dosed rat brain after 2 hrs; format: functional
[9] = tested on: Rattus norvegicus; test: Increase in 5HT level in Sprague-Dawley rat hypothalamus by microdialysis at 20 mg/kg, po (basal value set at 100%); format: functional
[10] = tested on: Rattus norvegicus; test: Ability to block 8-OH-DPAT-induced increase of corticosterone in sc dosed rat serum after 1 hr; format: functional
[11] = tested on: Rattus norvegicus; test: Increase in 5HT level in Sprague-Dawley rat hypothalamus by microdialysis at 20 mg/kg, sc (basal value set at 100%); format: functional; details: route subcutaneous
[12] = tested on: Rattus norvegicus; test: Reduction of serotonergic neuron level in dorsal raphe nucleus of anesthetized rat after 3 days of sub-chronic administration at 10 mg/kg/day; format: functional, organism-based
[13] = tested on: Rattus norvegicus; test: Increase in 5HT level in Sprague-Dawley rat hypothalamus by microdialysis at 10 mg/kg, ip (basal value set at 100%); format: functional; details: route intraperitoneal

SMILES | inhibition [1] | inhibition [2] | Activity [4] | ED50 [5] | Ki [6] | ED50 [7] | also measured
Cc1cc2c(OC[C@@H](O)CN3CC[C@@H](c4cc5ccccc5s4)C[C@@H]3C)cccc2[nH]1 | 17% | 5% | – | – | – | – | Activity [3]: 119%
Cc1cccc2sc([C@@H]3CCN(C[C@H](O)COc4cccc5[nH]ccc45)[C@@H](C)C3)cc12 | 9% | 20% | 210% | > 30 mg/kg | 0.44 nM | 1.65 mg/kg | –
COc1ccc2cc([C@@H]3CCN(C[C@H](O)COc4cccc5[nH]ccc45)[C@@H](C)C3)sc2c1 | 29% | 14% | 140% | – | 1.1 nM | – | ED50 [8]: 1.07 mg/kg
COc1cccc2sc([C@H]3CCN(C[C@H](O)COc4cccc5[nH]ccc45)[C@@H](C)C3)cc12 | 88% | 40% | – | – | 13.6 nM | – | –
O[C@H](COc1cccc2[nH]ccc12)CN1CCC(c2cc3ccccc3s2)CC1 | 80% | 6% | – | – | 16.7 nM | – | –
C[C@H]1C[C@H](c2cc3cc(Cl)ccc3s2)CCN1C[C@H](O)COc1cccc2[nH]ccc12 | 39% | 47% | – | 26 mg/kg | 0.58 nM | 3.65 mg/kg | Activity [9]: 287%
C[C@H]1C[C@H](c2cc3ccccc3s2)CCN1C[C@H](O)COc1cccc2[nH]ccc12 | -2% | 1% | – | – | 0.51 nM | – | ED50 [10]: 2.83 mg/kg; ED50 [8]: 0.28 mg/kg; Activity [11]: 264%
COc1cccc2sc([C@@H]3CCN(C[C@H](O)COc4cccc5[nH]ccc45)[C@H](C)C3)cc12 | 70% | 28% | – | – | – | – | –
C[C@H]1C[C@H](c2cc3ccc(F)cc3s2)CCN1C[C@H](O)COc1cccc2[nH]ccc12 | 8% | 23% | 479% | > 30 mg/kg | 0.31 nM | 0.69 mg/kg | ED50 [10]: 5.08 mg/kg
O[C@H](COc1cccc2[nH]ccc12)CN1CCC(c2cc3ccc(F)cc3s2)CC1 | 13% | 9% | 130% | – | 1.99 nM | – | –
COc1cccc2sc([C@@H]3CCN(C[C@H](O)COc4cccc5[nH]c(C)cc45)[C@@H](C)C3)cc12 | 26% | -3% | – | 3.2 mg/kg | – | 3.79 mg/kg | Activity [3]: 713%; Activity [12]: inactive
COc1cccc2sc([C@H]3CCN(C[C@H](O)COc4cccc5[nH]ccc45)[C@H](C)C3)cc12 | 8% | 33% | – | > 30 mg/kg | 1.15 nM | > 10 mg/kg | Activity [9]: 330%
COc1cccc2sc(C3CCN(C[C@H](O)COc4cccc5[nH]c(C)cc45)CC3)cc12 | – | – | – | – | 51.2 nM | – | –
COc1cccc2sc([C@@H]3CCN(C[C@H](O)COc4cccc5[nH]ccc45)[C@@H](C)C3)cc12 | 11% | 13% | 368% | 21.1 mg/kg | 0.27 nM | 3.71 mg/kg | –
CNCCC(Oc1ccc(C(F)(F)F)cc1)c1ccccc1 (stereo not drawn) [FLUOXETINE] | – | – | – | – | – | – | Activity [12]: Active; Activity [13]: 160%
Cc1cc2c(OC[C@@H](O)CN3CC[C@@H](c4cc5cc(F)ccc5s4)C[C@@H]3C)cccc2[nH]1 | 30% | 6% | 315% | – | 0.24 nM | – | –
COc1cccc2sc(C3CCN(C[C@H](O)COc4cccc5[nH]ccc45)CC3)cc12 | 100% | 4% | – | – | 12.6 nM | – | –
